Results reported in patent US11306084B2, “Integrin antagonists” (Saint Louis University, priority 2016, dated 2022).
Counter-ions that a name gives are not always drawn.

Assays:
[1] = target: T1, Recombinant human integrin ανβ1 (Homo sapiens, UniProt P05556+P06756); test: Solid Phase Receptor Assay (SPRA) for ανβ1 function; assay type: binding; details: plate-bound human fibronectin; read-out: αvβ1 SPRA IC50
T1 construct: purchased R&D Systems 6579-AV

[2] = target: T2, Recombinant human integrin ανβ5 (Homo sapiens, UniProt P06756+P18084); test: Solid Phase Receptor Assay (SPRA) for ανβ5 function; assay type: binding; details: plate-bound human vitronectin; read-out: αvβ5 SPRA IC50
T2 construct: purchased R&D Systems 2528-AV
T2 sequence (P06756 31-992 limits assumed): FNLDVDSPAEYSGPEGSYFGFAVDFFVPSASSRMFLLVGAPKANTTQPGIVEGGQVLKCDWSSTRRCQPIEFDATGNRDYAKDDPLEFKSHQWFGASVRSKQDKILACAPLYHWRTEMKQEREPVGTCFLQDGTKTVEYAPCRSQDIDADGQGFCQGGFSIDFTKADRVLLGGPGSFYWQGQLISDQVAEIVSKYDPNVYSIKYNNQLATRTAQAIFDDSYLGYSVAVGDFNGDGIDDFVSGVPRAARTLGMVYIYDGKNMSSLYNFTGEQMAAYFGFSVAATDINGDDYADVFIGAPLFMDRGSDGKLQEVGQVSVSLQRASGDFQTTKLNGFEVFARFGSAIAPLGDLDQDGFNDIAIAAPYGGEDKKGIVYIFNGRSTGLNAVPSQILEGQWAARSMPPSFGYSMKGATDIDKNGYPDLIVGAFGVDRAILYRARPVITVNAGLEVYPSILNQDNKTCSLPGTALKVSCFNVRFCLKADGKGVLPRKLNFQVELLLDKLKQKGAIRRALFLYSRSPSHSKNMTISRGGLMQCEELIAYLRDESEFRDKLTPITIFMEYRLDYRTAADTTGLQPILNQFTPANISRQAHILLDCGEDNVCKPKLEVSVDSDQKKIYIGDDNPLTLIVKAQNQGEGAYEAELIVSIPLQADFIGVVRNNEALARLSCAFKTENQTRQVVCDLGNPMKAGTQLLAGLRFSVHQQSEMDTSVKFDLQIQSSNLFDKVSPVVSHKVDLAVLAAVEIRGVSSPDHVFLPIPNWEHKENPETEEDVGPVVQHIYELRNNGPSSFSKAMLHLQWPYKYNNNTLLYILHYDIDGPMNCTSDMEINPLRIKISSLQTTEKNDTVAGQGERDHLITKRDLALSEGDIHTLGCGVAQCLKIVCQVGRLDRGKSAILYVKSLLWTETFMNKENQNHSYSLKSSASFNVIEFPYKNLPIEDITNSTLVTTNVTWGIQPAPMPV
T2 sequence (P18084 24-719 limits assumed): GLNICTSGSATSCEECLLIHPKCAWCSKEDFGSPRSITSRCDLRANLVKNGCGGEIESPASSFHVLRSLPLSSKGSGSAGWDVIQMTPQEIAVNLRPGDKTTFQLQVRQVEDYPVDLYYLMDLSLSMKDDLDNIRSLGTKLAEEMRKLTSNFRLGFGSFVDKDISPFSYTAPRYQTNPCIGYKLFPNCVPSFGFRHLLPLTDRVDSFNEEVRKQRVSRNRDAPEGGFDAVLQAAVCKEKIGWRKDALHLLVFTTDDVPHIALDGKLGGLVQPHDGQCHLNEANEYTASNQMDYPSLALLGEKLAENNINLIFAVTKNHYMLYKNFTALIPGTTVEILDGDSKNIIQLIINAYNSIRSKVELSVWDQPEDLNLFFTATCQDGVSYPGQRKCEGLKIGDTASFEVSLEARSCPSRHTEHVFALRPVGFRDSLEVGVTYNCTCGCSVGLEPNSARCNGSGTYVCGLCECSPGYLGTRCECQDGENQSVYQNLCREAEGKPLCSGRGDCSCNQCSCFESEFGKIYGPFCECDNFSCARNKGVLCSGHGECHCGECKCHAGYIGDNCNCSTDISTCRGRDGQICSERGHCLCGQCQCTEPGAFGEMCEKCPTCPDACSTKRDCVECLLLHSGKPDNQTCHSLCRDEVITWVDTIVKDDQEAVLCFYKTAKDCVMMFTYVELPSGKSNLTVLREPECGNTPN

T1 sequence (P06756 31-992 limits assumed): as the sequence (P06756 31-992 limits assumed) above
T1 sequence (P05556 21-728 limits assumed): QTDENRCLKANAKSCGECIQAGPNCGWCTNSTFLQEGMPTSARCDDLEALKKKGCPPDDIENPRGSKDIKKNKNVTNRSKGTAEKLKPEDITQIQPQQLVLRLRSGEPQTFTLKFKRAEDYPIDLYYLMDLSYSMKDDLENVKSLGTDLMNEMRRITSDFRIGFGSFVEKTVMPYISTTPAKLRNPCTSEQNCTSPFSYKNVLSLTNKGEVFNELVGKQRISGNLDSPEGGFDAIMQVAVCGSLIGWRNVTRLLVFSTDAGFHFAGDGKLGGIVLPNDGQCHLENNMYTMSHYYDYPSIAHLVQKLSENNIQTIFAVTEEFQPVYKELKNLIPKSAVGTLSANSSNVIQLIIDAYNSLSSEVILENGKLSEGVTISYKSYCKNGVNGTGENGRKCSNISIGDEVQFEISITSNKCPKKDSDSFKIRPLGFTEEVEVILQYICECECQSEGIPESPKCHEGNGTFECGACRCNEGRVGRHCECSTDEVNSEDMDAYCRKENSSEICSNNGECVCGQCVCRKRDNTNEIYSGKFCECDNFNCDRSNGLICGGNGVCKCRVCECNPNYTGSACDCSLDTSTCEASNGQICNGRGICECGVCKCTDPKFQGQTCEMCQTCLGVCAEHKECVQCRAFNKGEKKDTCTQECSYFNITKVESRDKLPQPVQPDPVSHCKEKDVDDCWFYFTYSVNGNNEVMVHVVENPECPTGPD

| SMILES | IC50 [1] [nM] | IC50 [2] [nM] |
| --- | --- | --- |
| Cn1nc(CC(CC(=O)O)c2cccc(C(C)(C)C)c2)cc1OCCc1ccc2c(n1)NCCC2 (centres unmarked) [Example 49, 3-(3-tert-butylphenyl)-4-[1-methyl-5-[2-(5,6,7,8-tetrahydro-1,8-naphthyridin-2-yl)ethoxy]pyrazol-3-yl]butanoic Acid Trifluoroacetate] | 4.4 | 0.4 |
| COCC1(c2cc(C(CC(=O)O)Cc3cc(OCCc4ccc5c(n4)NCCC5)n(C)n3)cc(C(F)(F)F)c2)CCOCC1 (centres unmarked) [Example 31, 3-(3-(4-(methoxymethyl)tetrahydro-2H-pyran-4-yl)-5-(trifluoromethyl)phenyl)-4-(1-methyl-5-(2-(5,6,7,8-tetrahydro-1,8-naphthyridin-2-yl)ethoxy)-1H-pyrazol-3-yl)butanoic Acid] | 1.4 | 3.3 |
| COc1cc(C(C)(C)C)ccc1C(CC(=O)O)Cc1cc(OCCc2ccc3c(n2)NCCC3)n(C)n1 (centres unmarked) [Example 34, 3-(4-(tert-butyl)-2-methoxyphenyl)-4-(1-methyl-5-(2-(5,6,7,8-tetrahydro-1,8-naphthyridin-2-yl)ethoxy)-1H-pyrazol-3-yl)butanoic Acid] | 47 | 2.3 |
| Cn1nc(CC(CC(=O)O)c2cc(Cl)cc(C3(C(F)F)CC3)c2)cc1OCCc1ccc2c(n1)NCCC2 (centres unmarked) [Example 22, 3-(3-chloro-5-(1-(difluoromethyl)cyclopropyl)phenyl)-4-(1-methyl-5-(2-(5,6,7,8-tetrahydro-1,8-naphthyridin-2-yl)ethoxy)-1H-pyrazol-3-yl)butanoic Acid] | 2.2 | 0.6 |
